Target: T1, ArnT (undecaprenyl phosphate-alpha-4-amino-4-deoxy-L-arabinose arabinosyl transferase) (Pseudomonas aeruginosa, UniProt Q02R27)
T1 sequence (Q02R27 1-549): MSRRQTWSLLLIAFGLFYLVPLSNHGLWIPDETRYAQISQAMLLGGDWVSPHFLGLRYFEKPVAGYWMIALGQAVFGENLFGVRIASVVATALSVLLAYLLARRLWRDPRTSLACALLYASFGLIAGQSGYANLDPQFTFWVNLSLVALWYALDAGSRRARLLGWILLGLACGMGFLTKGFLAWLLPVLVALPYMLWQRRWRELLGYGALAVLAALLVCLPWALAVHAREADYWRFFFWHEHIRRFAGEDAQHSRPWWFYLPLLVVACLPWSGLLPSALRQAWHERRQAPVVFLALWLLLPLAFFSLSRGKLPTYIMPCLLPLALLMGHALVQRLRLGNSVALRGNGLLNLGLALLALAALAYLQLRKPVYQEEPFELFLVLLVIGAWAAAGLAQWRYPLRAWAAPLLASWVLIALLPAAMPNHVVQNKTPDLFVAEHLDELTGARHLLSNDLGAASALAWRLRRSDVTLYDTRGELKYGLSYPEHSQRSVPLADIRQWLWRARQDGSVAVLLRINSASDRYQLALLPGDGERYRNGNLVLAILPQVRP
Assay: intrinsic tryptophan fluorescence quenching titration, one-site binding fit

`C[C@@]12CC[C@@H]3[C@@](CC[C@@H]4[C@@](C)(COC(=O)C(=O)O)CCC[C@]43C)(CC1)C2` [FDO-H] showed a Kd of ~10 µM.
